Experimental findings from ChEMBL document CHEMBL1146939, “Design, synthesis, and biological evaluations of novel oxindoles as HIV-1 non-nucleoside reverse transcriptase inhibitors. Part 2” (Bioorg Med Chem Lett, 2006) are described below.

SMILES strings stand for the structures.

The subject of data set [1] is Human immunodeficiency virus 1. Nature of the data set: Antiviral activity against HIV1 V106A mutant. The format is functional, organism-based.
For data set [2], the system named is Rattus norvegicus. Nature of the data set: AUC in […] rat at 50 mg/kg, po normalized to 1 mg/kg. The following applies: in vivo. The format is ADME, organism-based, Plasma.
For data set [3], the system named is Human immunodeficiency virus 1. Nature of the data set: Antiviral activity against HIV1 V179E mutant. The format is functional, organism-based.
Data set [4] relates to Human immunodeficiency virus 1. Nature of the data set: Antiviral activity against HIV1 Y188L mutant. In kind it is functional, organism-based.
Data set [5] concerns Human immunodeficiency virus 1. In words: Antiviral activity against HIV1 in HEK293T cells. In kind it is functional, organism-based. Particulars: Human immunodeficiency virus 1, HEK-293T.
Data set [6] relates to Human immunodeficiency virus 1. Nature of the data set: Antiviral activity against HIV1 K103N mutant. In kind it is functional, organism-based.
Another data set relates to HEK293. In words: Cytotoxicity against HEK293T cells. In kind it is functional. Particulars: Homo sapiens.
In data set [7] the test system is Human immunodeficiency virus 1. In words: Antiviral activity against HIV1 F227L mutant. In kind it is functional, organism-based.
In data set [8] the test system is Human immunodeficiency virus 1. Nature of the data set: Antiviral activity against HIV1 I135V mutant. In kind it is functional, organism-based.
Data set [9] has as its system Human immunodeficiency virus 1. In words: Antiviral activity against HIV1 Y181C mutant. In kind it is functional, organism-based.
Data set [10] relates to Human immunodeficiency virus 1. In words: Antiviral activity against HIV1 I135T mutant. The format is functional, organism-based.
The nature of data set [11]: Oral bioavailability in […] rat at 50 mg/kg, po. The following applies: in vivo. The format is ADME, organism-based.
For data set [12], the system named is Human immunodeficiency virus 1. Nature of the data set: Antiviral activity against HIV1 F227C mutant. In kind it is functional, organism-based.
For data set [13], the system named is Human immunodeficiency virus 1. In words: Antiviral activity against HIV1 L100I mutant. The format is functional, organism-based.
For data set [14], the system named is Rattus norvegicus. In words: Cmax in […] rat at 50 mg/kg, po normalized to 1 mg/kg. In kind it is ADME, organism-based. More on the design: dose 50 mg/kg, route oral. Particulars: in vivo.
In data set [15] the test system is Human immunodeficiency virus 1. Nature of the data set: Antiviral activity against HIV1 E138K mutant. The format is functional, organism-based.

Turning to `O=C1Nc2ccc(Cl)cc2[C@@]12C[C@@H]2c1ccccn1`, the EC50 in [1] is 259 nM; in [3] it was 898 nM; in data set [4], over 10000 nM; in data set [5], 8 nM; in data set [6], over 10000 nM; in data set [7], 13 nM. Further, the EC50 was 26 nM in [8]; 3230 nM in data set [9]; 127 nM in data set [10]; 528 nM in data set [12]; 174 nM in [13]; 45 nM in data set [15]. For the same compound, the exposure (AUC) in the data set with Rattus norvegicus [2] came to 5.43 µg·min/mL. Also, the half-maximal cytotoxic concentration (CC50) in the data set on HEK293 is over 10000 nM. Also, the bioavailability in [11] amounted to 46%. The Cmax with Rattus norvegicus [14] is recorded as 68.4 nM.
Consider `O=C1Nc2ccc(Cl)cc2[C@@]12C[C@@H]2c1ccsc1`, for which the EC50 in data set [1] is 513 nM; in [3], 324 nM; in data set [4], 1250 nM; in data set [5] it was 6 nM; in data set [6], 100 nM; in [7], 2 nM. Also, the EC50 came to 17 nM in [8]; 31 nM in data set [9]; 48 nM in data set [10]; 142 nM in data set [12]; 8 nM in data set [13]; 30 nM in data set [15]. The compound also displayed a CC50 in the data set with HEK293 of 1670 nM.
As for `CCOC(=O)[C@H]1C(C)(C)[C@]12C(=O)Nc1ccc(Br)cc12`, the AUC in the data set with Rattus norvegicus [2] stood at 0.9 µg·min/mL. The compound further yielded a CC50 in the data set with HEK293 of over 10000 nM. Also, in data set [11], the bioavailability was 27%. Also, the Cmax in the data set with Rattus norvegicus [14] is 17.9 nM.
`Cc1cc([C@H]2C[C@]23C(=O)Nc2ccc(Cl)cc23)oc1C`: the EC50 is 630 nM in [1]; 2460 nM in data set [3]; over 10000 nM in data set [4]; 27 nM in data set [5]; over 10000 nM in [6]; 63 nM in data set [7]. Further, the EC50 in data set [8] came out at 59 nM; in data set [9], 3070 nM; in [10], 236 nM; in data set [12], 957 nM; in [13] it was 260 nM; in data set [15], 52 nM. Further, the CC50 with HEK293 was over 10000 nM.

For orientation: EC50 means the concentration giving half of the maximal effect. The term AUC denotes concentration integrated over time. Lower therefore signals less exposure. As usually defined, the CC50 is the concentration at which the toxic effect on the cells reaches its halfway point. A word on the bioavailability: it is the share of a dose that reaches the circulation, judged against a reference dose that is usually intravenous. The low end stands for poor availability, the high end for good availability. As a reminder, the Cmax is the highest concentration seen after dosing.
